Earlier results on two compounds are cited in article PMC5224880, “Discovery and Molecular Basis of a Diverse Set of Polycomb Repressive Complex 2 Inhibitors Recognition by EED” (PLoS ONE, 2017).

Data set [1] has as its system tumor growth in the xenograft mouse model. Further details: method as in PMID 28135235. Particulars: cited from earlier work.
The subject of data set [2] is PRC2. Further details: method as in PMID 28135235. Particulars: recombinant NCP as substrate; read-out: half-maximum stimulation (Kact) of PRC2 activity; cited from earlier work.

pEC50: −log10 of the molar value. Entries after “also recorded” stand apart in the source; their conditions may differ.

For `CS(=O)(=O)c1ccc(-c2cnc(NCc3ccco3)n3cnnc23)cc1` [EED226], in data set [1], the antitumor activity result is recorded as “strong antitumor activity; also recorded: completely regressed tumor growth”.
For “H3K27me3 stimulatory peptide: activation peptide H3K27me3 (21–44) used to stimulate PRC2 activity for the nucleosome substrate”, the pEC50 in data set [2] was 6.00.
